In patent publication US7569603B2, “Ester compound and its use in pest control” (Sumitomo Chemical Company, Limited, priority 2006, dated 2009):

The compounds below were run on Adult houseflies (assay: Knock-down test on adult houseflies by spraying oil solution in a cubic chamber). Conditions: 0.7 ml of 0.00625% oil solution sprayed into 70 cm cubic chamber; 5 male and 5 female adult houseflies; counted up to 10 minutes after spraying.
Assay type: in vivo, housefly (Musca domestica)
Description: A solution of 0.00625 part of the present compound (1) in 10 parts of dichloromethane was mixed with 89.99375 parts of deodorized kerosene to obtain a 0.00625% oil solution.
Adult houseflies (5 males and 5 females) were left in a cubic chamber (70 cm at each side). Into the chamber, 0.7 ml of 0.00625% oil solution of the present compound (1) prepared above was sprayed with a spray gun at a pressure of 8.8×10^4 Pa from a small window on the side of the chamber. Then, up to 10 minutes after spraying, the number of knocked-down insects was counted with time. From the results, a time required for knocking down 90% of the tested insects (KT90) was calculated.
In addition, the same test was carried out that 5-benzyl-3-furylmethyl (1R)-cis-2,2-dimethyl-3-((E)-3-ethoxy-3-oxo-1-propenyl)cyclopropanecarboxylate represented by the formula:
[drawing 6] (hereinafter, referred to as the comparative compound (A)), which is the compound described in GB-A-1413491 as compound P19/2; and 3-phenylbenzyl (1R)-cis-2,2-dimethyl-3-((E)-3-ethoxy-2-fluoro-3-oxo-1-propenyl)cyclopropanecarboxylate represented by the formula:
[drawing 7] (hereinafter, referred to as the comparative compound (B)), which is the compound described in U.S. Pat. No. 4,489,093 as example 12 were used as comparative compounds (repeated twice).

Compound | KT90 (time required for knocking down 90% of the tested insects)
CCOC(=O)/C=C/[C@H]1[C@@H](C(=O)OCc2coc(Cc3ccccc3)c2)C1(C)C [Comparative compound (A), 5-benzyl-3-furylmethyl (1R)-cis-2,2-dimethyl-3-((E)-3-ethoxy-3-oxo-1-propenyl)cyclopropanecarboxylate] | 8.0 min
CCOC(=O)/C(F)=C\[C@H]1[C@@H](C(=O)OCc2cccc(-c3ccccc3)c2)C1(C)C [Comparative compound (B), 3-phenylbenzyl (1R)-cis-2,2-dimethyl-3-((E)-3-ethoxy-2-fluoro-3-oxo-1-propenyl)cyclopropanecarboxylate] | 8.9 min
CCOC(=O)/C(F)=C\[C@H]1[C@@H](C(=O)OCc2coc(Cc3ccccc3)c2)C1(C)C [Present compound (1), 5-benzyl-3-furylmethyl (1R)-cis-2,2-dimethyl-3-((E)-3-ethoxy-2-fluoro-3-oxo-1-propenyl)cyclopropanecarboxylate] | 2.9 min
